Data published in PubChem BioAssay AID328 (DTP/NCI, 2004).
“And” between values parts separate entries of the source, which are not always exact repeats. Equal values may be shown once. Toxic doses and inconclusive results are not listed.

System: BDF1 mice, P388 leukemia ip, median survival T/C
Test: NCI In Vivo Anticancer Drug Screen. Data for tumor model P388 Leukemia (intraperitoneal) in B6D2F1 (BDF1) mice
Settings: endpoint: median survival time, higher = longer survival
Summary of the method: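 Vehicle-dosed animals serve as the reference; survival of compound-dosed, tumour-implanted mice is divided by it.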

[1] = dose: 25.0 mg/kg/injection, schedule: Q01DX009 (ip), vehicle: water
[2] = dose: 50.0 mg/kg/injection, schedule: Q01DX009 (ip), vehicle: water
[3] = dose: 100.0 mg/kg/injection, schedule: Q01DX009 (ip), vehicle: water
[4] = dose: 200.0 mg/kg/injection, schedule: Q01DX009 (ip), vehicle: water
[5] = dose: 200.0 mg/kg/injection, schedule: Q04DX003 (ip), vehicle: water
[6] = dose: 300.0 mg/kg/injection, schedule: Q04DX003 (ip), vehicle: water
[7] = dose: 400.0 mg/kg/injection, schedule: Q04DX003 (ip), vehicle: water
[8] = dose: 100.0 mg/kg/injection, schedule: Q01DX009 (ip), vehicle: saline with Tween-80
[9] = dose: 100.0 mg/kg/injection, schedule: Q04DX003 (ip), vehicle: saline with Tween-80
[10] = dose: 200.0 mg/kg/injection, schedule: Q01DX009 (ip), vehicle: saline with Tween-80
[11] = dose: 200.0 mg/kg/injection, schedule: Q04DX003 (ip), vehicle: saline with Tween-80
[12] = dose: 50.0 mg/kg/injection, schedule: Q01DX009 (ip), vehicle: saline with Tween-80
[13] = dose: 50.0 mg/kg/injection, schedule: Q04DX003 (ip), vehicle: saline with Tween-80

Structure (SMILES)	T/C [1]	T/C [2]	T/C [3]	T/C [4]	T/C [5]	T/C [6]	T/C [7]	T/C [8]	T/C [9]	T/C [10]	T/C [11]	T/C [12]	T/C [13]	also measured
CCOC(=O)C(I)CC (stereo not given)	98 % of control	107 % of control	116 % of control	123 % of control	98 % of control and 104 % of control	110 % of control	104 % of control	–	–	–	–	–	–	T/C (dose: 6.25 mg/kg/injection, schedule: Q04DX003 (ip), vehicle: water): 100 % of control; T/C (dose: 12.5 mg/kg/injection, schedule: Q01DX009 (ip), vehicle: water): 105 % of control; T/C (dose: 12.5 mg/kg/injection, schedule: Q04DX003 (ip), vehicle: water): 100 % of control; T/C (dose: 25.0 mg/kg/injection, schedule: Q04DX003 (ip), vehicle: water): 105 % of control; T/C (dose: 50.0 mg/kg/injection, schedule: Q04DX003 (ip), vehicle: water): 101 % of control; T/C (dose: 100.0 mg/kg/injection, schedule: Q04DX003 (ip), vehicle: water): 96 % of control
COC1/C=C/OC2(C)Oc3c(C)c(O)c4c(O)c(c(/C=N/NC5CCCCCCCCCCCCCC5)c(O)c4c3C2=O)NC(=O)/C(C)=C\C=C\C(C)C(O)C(C)C(O)C(C)C(OC(C)=O)C1C (stereo not given)	–	–	–	–	–	–	–	100 % of control	100 % of control	95 % of control	90 % of control	–	–	T/C (dose: 400.0 mg/kg/injection, schedule: Q01DX009 (ip), vehicle: saline with Tween-80): 95 % of control; T/C (dose: 400.0 mg/kg/injection, schedule: Q04DX003 (ip), vehicle: saline with Tween-80): 90 % of control
O=S1(=O)N2CN3CN(C2)CN1C3	–	–	–	–	–	–	–	–	–	–	–	–	–	T/C (dose: 12.5 mg/kg/injection, schedule: Q04DX003 (ip), vehicle: Klucel (hydroxypropylcellulose) (HPC)): 121 % of control; T/C (dose: 50.0 mg/kg/injection, schedule: Q04DX003 (ip), vehicle: Klucel (hydroxypropylcellulose) (HPC)): 105 % of control
CCCCCCCCCCOP(=S)(N1CC1)N1CC1	–	–	–	–	–	–	–	–	272 % of control	–	–	183 % of control	226 % of control	T/C (dose: 12.5 mg/kg/injection, schedule: Q01DX009 (ip), vehicle: saline with Tween-80): 108 % of control; T/C (dose: 13.0 mg/kg/injection, schedule: Q04DX003 (ip), vehicle: saline with Tween-80): 113 % of control; T/C (dose: 20.0 mg/kg/injection, schedule: Q04DX003 (ip), vehicle: saline with Tween-80): 152 % of control; T/C (dose: 25.0 mg/kg/injection, schedule: Q01DX009 (ip), vehicle: saline with Tween-80): 245 % of control; T/C (dose: 33.0 mg/kg/injection, schedule: Q04DX003 (ip), vehicle: saline with Tween-80): 169 % of control; T/C (dose: 44.0 mg/kg/injection, schedule: Q04DX003 (ip), vehicle: saline with Tween-80): 195 % of control; T/C (dose: 67.0 mg/kg/injection, schedule: Q04DX003 (ip), vehicle: saline with Tween-80): 272 % of control; T/C (dose: 75.0 mg/kg/injection, schedule: Q04DX003 (ip), vehicle: saline with Tween-80): 243 % of control; T/C (dose: 125.0 mg/kg/injection, schedule: Q04DX003 (ip), vehicle: saline with Tween-80): 165 % of control; T/C (dose: 150.0 mg/kg/injection, schedule: Q04DX003 (ip), vehicle: saline with Tween-80): 272 % of control
CCOC(=O)/C=C/c1ccco1	–	–	–	–	–	–	–	88 % of control	109 % of control	88 % of control	109 % of control	100 % of control	104 % of control	–
O=C(Cc1ccccc1)Cc1ccccc1	99 % of control	99 % of control	90 % of control	97 % of control	97 % of control and 100 % of control	89 % of control and 97 % of control	93 % of control and 100 % of control	–	–	–	–	–	–	T/C (dose: 400.0 mg/kg/injection, schedule: Q01DX009 (ip), vehicle: water): 109 % of control; T/C (dose: 500.0 mg/kg/injection, schedule: Q04DX003 (ip), vehicle: water): 108 % of control; T/C (dose: 600.0 mg/kg/injection, schedule: Q04DX003 (ip), vehicle: water): 98 % of control
